The text below walks through data of US7956062B2, “Reactive oxygen generating enzyme inhibitor with nitric oxide bioactivity and uses thereof” (Duke University, priority 2004, dated 2011).

Assay [1] concerns Isolated cardiac myocytes from nNOS deficient rats. In words: Isolated cardiac myocytes: sarcomere length and systolic calcium transient responses. Format: cell-based. The following applies: versus baseline; for sarcomere length (SL), a measure of myocardial contraction (% change from baseline): FIG. 1A; for systolic calcium transient (% change from baseline): FIG. 1B. As for the experimental part: Isolated cardiac myocytes from nNOS deficient rats (known to have increased xanthine oxidase activity), were evaluated for responses at baseline (BL or bl), then to allopurinol, then to nitrated allopurinol. The concentration of allopurinol used was 0.5×10^−3 M. The concentration of nitrated allopurinol used was 10^−4M. Evaluation was carried out for sarcomere length (SL), a measure of myocardial contraction, and for systolic calcium transient which drives myocardial contraction. The results for evaluation of sarcomere length are shown in FIG. 1A and results for evaluation of systolic calcium transient are shown in FIG. 1B.

Assay [2] deals with crush wound to their left lower extremity, ischemic for six hours. In words: Patient case, ischemic crush wound with revascularization (Working Example IV). Conditions: emergency surgery. Format: in vivo. The source says:
A person has a crush wound to their left lower extremity and undergoes emergency surgery.

Assay [3] deals with asthmatic with frequent exacerbations. In words: Patient case, asthma (Working Example XIV). Format: in vivo. The following applies: 300 mg/day. As for the experimental part:
A asthmatic with frequent exacerbations is begun on 300 mg/day nitrated allopurinol (16).

The subject of another assay is Alzheimer's disease. Briefly: Patient case, Alzheimer's disease (Working Example XI). Format: in vivo. The following applies: 300 mg/day; after 3 months. As for the experimental part: A person with Alzheimer's disease is begun on 300 mg/day nitrated allopurinol (16). Their memory and cognitive function stabilizes after 3 months.
For the next assay, the system named is hyperlipidemia. Briefly: Patient case, hyperlipidemia with calcification of coronaries and aorta (Working Example VI). Format: in vivo. Conditions: 300 mg/day; over the following two years.
For a further assay, the system named is sickle cell disease. In words: Patient case, sickle cell disease (Working Example V). Format: in vivo. The following applies: 300 mg/day, over the following year. On the procedure:
A person with sickle cell disease presents with pulmonary hypertension and LFT abnormalities. They had had four admissions to the emergency in the past year with painful crisis. They are begun n 300 mg/day of nitrated allopurinol (16) with a decrease in their pulmonary artery pressure over the following year from a mean of 35 mm Hg to 30 mm Hg.

The subject of a further assay is class 3 angina. In words: Patient case, class 3 angina (Working Example III). Format: in vivo. The following applies: 300 mg/day; over two weeks; class 3 before treatment. On the procedure: A person with class 3 angina is begun on nitrated allopurinol (16), 300 mg/day.
Another assay concerns ALS. In words: Patient case, ALS (Working Example XIII). Conditions: 300 mg/day; after three weeks. Format: in vivo. On the procedure:
A person with ALS with progressive deterioration, stabilizes after three weeks at 300 mg/day of nitrated allopurinol (16).

Assay [4] relates to congestive heart failure and a dilated cardiomyopathy. In words: Patient case, congestive heart failure and dilated cardiomyopathy (Working Example IX). Format: in vivo. The following applies: 300 mg POQD, one week later. As for the experimental part:
A person with congestive heart failure and a dilated cardiomyopathy is begun on nitrated allopurinol (16), 300 mg POQD. One week later, their ejection fraction had improved from 35% to 40%, their blood pressure had decreased from 130/80 to 110/80, and […] pO2 has improved from 70 to 80 mm Hg on room air.

The test system of another assay is leg pain and diabetes. Briefly: Patient case, leg pain and diabetes (Working Example XII). Format: in vivo. The following applies: 300 mg/day.
The test system of assay [5] is bleomycin-induced lung injury. Briefly: Patient case, bleomycin-induced lung injury (Working Example VII). Format: in vivo. The following applies: 300 PO BID; over the following week; on 50% oxygen; from 60 (on 100% oxygen). The text has this: A person with bleomycin-induced lung injury is begun on nitrated allopurinol (16), 300 PO BID. The PO2 improves from 60 (on 100% oxygen) to 65 mm Hg on 50% oxygen over the following week.

A further assay concerns Parkinson's disease. In words: Patient case, Parkinson's disease (Working Example X). Format: in vivo. The following applies: 300 mg/day; after three weeks; treated with L-dopa. The text has this:
A person with Parkinson's disease treated with L-dopa has persistent tremor and motor problems.

The subject of a further assay is dilated cardiomyopathy. Briefly: Patient case, dilated cardiomyopathy (Working Example II). Format: in vivo. The following applies: 300 mg PO BID, over the ensuing week. The text has this: A person presents with a dilated cardiomyopathy and is begun on a standard regimen including ace inhibitors, diuretics, and digoxin with little improvement.

On to `Oc1ncnc2[nH]ncc12` [allopurinol, reference compound], for which, in assay [1] (allopurinol 0.5×10^−3 M), the “sarcomere length (SL), a measure of myocardial contraction (% change from baseline)” value is “rise” and the “systolic calcium transient (% change from baseline)” value was “rise”.
`O=c1c2cnn(CCCO[N+](=O)[O-])c2ncn1CCCO[N+](=O)[O-]` [nitrated allopurinol (16), 1,5-bis(3-nitrooxypropyl)-1,5-dihydro-4H-pyrazolo[3,4-d]pyrimidin-4-one]: in assay [2], the “aggravation of injury following revascularization” value was “no aggravation of injury following revascularization”. In addition, the steroid use entry in [3] is “successfully tapered”. Moreover, the “memory and cognitive function” value in the assay on Alzheimer's disease is “stabilizes”. In the assay with hyperlipidemia, the “disease (calcification of coronaries and aorta)” value is given as “mild regression of their disease”. In the assay with sickle cell disease, the LFT abnormalities result was “resolve”. In addition, in the assay on sickle cell disease (four admissions with painful crisis in the past year), the painful crisis result is reported as “only one painful crisis”. In addition, in the assay on sickle cell disease (from a mean of 35 mm Hg), the “pulmonary artery pressure (mean)” value is given as 30 mm Hg. For the same compound, the angina classification entry in the assay with class 3 angina is on record as “improved to class 2”. Further, in [1] (nitrated allopurinol 10^−4M), the “sarcomere length (SL), a measure of myocardial contraction (% change from baseline)” value is listed as “increase obtained for nitrated allopurinol being greater than increase obtained for allopurinol” and the “systolic calcium transient (% change from baseline)” value was “increase obtained for nitrated allopurinol being greater than increase obtained for allopurinol”. The progressive deterioration entry in the assay with ALS is reported as “stabilizes”. Besides, in [4], the symptoms on angina result is recorded as “decreased”. Moreover, the ejection fraction in [4] (from 35%) was 40%. Besides, the blood pressure in [4] (from 130/80) was 110/80. In [4] (on room air, from 70), this compound returned a pO2 of 80 mm Hg. In the assay with leg pain and diabetes, the “pain (leg pain)” value is on record as “pain decreases”. Besides, the “distance they can walk” value in the assay with leg pain and diabetes (unresponsive to treatment before) is listed as “improves”. In assay [5], this compound returned a PO2 of 65 mm Hg. Besides, the “symptoms (persistent tremor and motor problems)” value with Parkinson's disease is “symptoms improve”. Further, the shortness of breath result with dilated cardiomyopathy is “decrease in a shortness of breath”. In addition, the left ventricular function entry with dilated cardiomyopathy (on standard regimen with little improvement) is “improvement of left ventricular function”.
